Measured values from US8361781B2, “Cell aggregation and encapsulation device and method” (Brown University, priority 2006, dated 2013).

Experiments:
Format in all cases: cell-based, human
NHFs [1] = assay: Viability staining of treated NHF honeycombs; conditions: NHF honeycombs maintained in Y-27632 solution, day 5
Description: NHF cells alone, H35 cells alone, and 50:50 mixtures of NHF and H35 cells were seeded into the trough aggregation devices and the tori aggregation devices as described in Example 2 and allowed to aggregate. Briefly, NHF cells derived from neonatal foreskins and H35 rat hepatoma cells were expanded in DMEM supplemented with 10% fetal bovine serum (FBS) and 1% penicillin/streptomycin solution. NHF cells were incubated in a 10% CO2 atmosphere and H35 cells were incubated in 5% CO2. The mixture experiments were a 50:50 mix of both cell types and were maintained in a 5% CO2 atmosphere. The cells were stained with fluorescent dyes (NHF cells with CellTracker Red CMTPX and H35 cells with CellTracker Green CMFDA from Invitrogen) to allow their aggregation in the mixed populations to be followed and their aggregated position visualized. Cells used in experiments were between passage 3 and passage 9. Cell viability was determined using the LIVE/DEAD Viability/Cytotoxicity Kit (Invitrogen) in accordance with the manufacturer's instructions.
Lastly, NHFs were seeded onto honeycomb-structured cell aggregation devices made as described in Example 9B and maintained in Y-27632 solution.

NHFs [2] = assay: NHF aggregation in honeycomb-structured cell aggregation devices; conditions: NHFs maintained in Y-27632 solution, day 5; untreated NHFs contracted up and off of pegs within 1 day
Description: In this experiment, cell aggregation devices were formed from agarose gels as described above, but agarose gels were micromolded with honeycomb-shaped recesses instead of troughs or a tori. The honeycomb-shaped recesses are essentially overlapping, tori-shaped recesses: There are 13 pegs (1 central, 6 concentric around the central peg and 6 outer pegs at 0°, 60°, 120°, 180°, 240°, 300° and 360°) within a network of recesses […] and with bottoms rounded with 200 μm radii. Time lapse microscopy was again used to monitor self-assembly of the NHF cells alone, the H35 cells alone and 50:50 mixtures of NHF cells and H35 cells as described above. The results are shown in FIG. 8, at time 0 (top row), 10 hours post-seeding (middle row) and 20 hours post-seeding (bottom row) with the aggregated NHF cells in column A, the aggregated H35 cells in column B and the aggregated 1:1 mixture of NHF and H35 cells in column C. The aggregated NHF cells quickly thinned, became taught and popped off the outer pegs of the honeycomb shaped substrate. Once freed from the substrate, the honeycomb-shaped aggregates of NHF cells contracted in a uniform manner but maintained its shape. The aggregated H35 cells thinned more slowly, maintaining contact with the outer pegs and staying within the molds. […]

NHF cells = assay: Rod length change kinetics of NHF aggregates in 2.2 mm trough features; conditions: NHF cells treated with 50 μM and 200 μM Y-27632, 2.2 mm troughs, FIG. 10
From the text: Micro-molded, non-adhesive, cell aggregation devices, each having a plurality of cell aggregation recesses in the shape of either troughs or tori were made following the method described in Example 1. Agarose was employed as the hydrogel material and the cell aggregation recess features were as follows. Troughs were 400 μm wide with bottoms rounded with 200 μm radii. There were 21 rows of troughs of increasing length per gel. Each row had 11 troughs, two of which were 400 μm long, then one each of 600 μm through 1800 μm increasing at 200 μm lengths, then two 2200 μm troughs. The 2200 μm troughs were used for all experiments except those for FIG. 9c, which presents data from all trough lengths. […] A z-stack of images from the 4× objective with 10-50 μm between focal planes was collected at each time point using custom-designed Openlab 4.0.2 automations and images were analyzed using Volocity 3.1 (Improvision). […] The core circumference of tori was measured as a continuous circumferential line located at the estimated midpoint of the perpendicular width of the toroid. […] Next, aggregation devices with trough features 2.2 mm in length were made as described in previous examples and seeded with NHF cells, NHF cells in serum-free medium, NHF cells treated with 50 μM of Y-27632 and NHF cells treated with 200 μM of Y-27632 and the lengths of resulting rod shaped aggregates were measured. […]

NHFs [3] = assay: Toroid stability of NHFs in micro-molded agarose toroidal aggregation devices
From the text: Micro-molded, non-adhesive, cell aggregation devices, each having a plurality of cell aggregation recesses in the shape of either troughs or tori were made following the method described in Example 1. Agarose was employed as the hydrogel material and the cell aggregation recess features were as follows. Troughs were 400 μm wide with bottoms rounded with 200 μm radii. There were 21 rows of troughs of increasing length per gel. Each row had 11 troughs, two of which were 400 μm long, then one each of 600 μm through 1800 μm increasing at 200 μm lengths, then two 2200 μm troughs. The 2200 μm troughs were used for all experiments except those for FIG. 9c, which presents data from all trough lengths. […] A z-stack of images from the 4× objective with 10-50 μm between focal planes was collected at each time point using custom-designed Openlab 4.0.2 automations and images were analyzed using Volocity 3.1 (Improvision). […] The core circumference of tori was measured as a continuous circumferential line located at the estimated midpoint of the perpendicular width of the toroid. Micro-molded agarose toroidal aggregation devices (n=208) made as described in Example 9 were seeded with untreated NHFs and NHFs treated with 100 μM of the cell contraction inhibitor Y-27632 (Calbiochem (EMD Biosciences, Inc.), San Diego, Calif.) and the number of stable toroids with patent centers was measured over time. […]

NHFs [4] = assay: Rod aggregation kinetics in 2.2 mm troughs after removal of drug (time-lapse); conditions: 100 μM Y-27632 initially, removed at 1.5 hrs and replaced with normal medium, FIG. 11
Description: Excess medium was aspirated from the wells and 200 μL of a single cell suspension was pipetted into the aggregation recess of each gel. Medium was added to the wells after a 1.5 hour incubation period wherein cells settled into the aggregation recesses and commenced the self-assembly process. Medium was exchanged every other day. […] A z-stack of images from the 4× objective with 10-50 μm between focal planes was collected at each time point using custom-designed Openlab 4.0.2 automations and images were analyzed using Volocity 3.1 (Improvision). Bright-field and fluorescent images were obtained using an Olympus IX70 microscope equipped with an AxioCam MRc digital camera. For the time-lapse experiments, medium was carefully added 20-30 minutes post seeding, before the devices were transferred to the time lapse microscope. Measurements of morphological changes were performed with ImageJ data analysis software. The length of a rod was the length of a line drawn from end to end of the structure (long-axis length). The core circumference of tori was measured as a continuous circumferential line located at the estimated midpoint of the perpendicular width of the toroid. Gels with trough features 2.2 mm in length were then seeded with NHFs or with NHFs treated initially with 100 μM Y-27632 and imaged every 10 minutes. At 1.5 hrs, the Y-27632 solution was removed and replaced with normal medium. […]

SMILES: C[C@@H](N)[C@H]1CC[C@H](C(=O)Nc2ccncc2)CC1 [Y-27632]
- cell viability (viability staining) (NHFs [1]): majority of the cells were living at day 5
- maintenance of honeycomb structure (NHFs [2]): remained intact in the honeycomb-shaped recesses at day 5
- effect on length change kinetics of rod shaped aggregates (NHF cells): dramatically slowed length change kinetics in rods
- treated NHFs still having patent centers (stable toroids) (NHFs [3]; 100 μM Y-27632, day 1, n=104, all untreated NHFs had progressed to spheroids): 90%
- treated NHFs still having patent centers (stable toroids) (NHFs [3]; 100 μM Y-27632, day 2, n=104): 5%
- aggregation kinetics after removal of the drug (NHFs [4]): progressing with similar kinetics to those of untreated NHFs
